Assay results from PMC5672024, “Selective Glucocorticoid Receptor Properties of GSK866 Analogs with Cysteine Reactive Warheads” (Frontiers in Immunology, 2017).

How the values were obtained:
[1] = test system: TNF-induced NFκB reporter gene activity in L929sA cells; assay: p(NFκB)3-50luc reporter gene assay with TNF (NFκB transrepression); format: cell-based; settings: TNF 2,500 IU/ml; for NFκB transrepression in NFκB-luc reporter: dose range
Procedure: (§1) In order to compare transactivation and transrepression potencies of the different synthesized GSK866 analogs, we performed GRE- and NFκB-luciferase-dependent reporter gene studies in stable transfected cell lines, as previously described ([3], [8]). HaCat cells expressing p(GRE)2 50-Luc and L929sA cells expressing p(GRE)250-Luc or p(NFκB)350-Luc were cultured in DMEM medium with 1% L-glutamine, supplemented with 10% feral bovine serum (FBS), 100 µg/ml streptomycin, and 100 IU/mL penicillin in a humidified 5% CO2 atmosphere. Cells were passaged every 2 days at a dilution of 1:6. Reporter gene cells were plated at a density of 0.5 × 10^5 cells/well in 24 well plates and grown overnight. p(GRE)250-Luc-dependent reporter gene cells were treated with solvent (DMSO) or compound (100 fM, 1 nM, 10 nM, 100 nM, and 1 µM) for 6 h, whereas in case of p(NFκB)350-Luc, TNF (2,500 IU/mL) was added 2 h following compound treatment. After incubation with the compounds, medium was removed and cells were washed twice with PBS followed by adding 100 µl of 1× lysis buffer (0.2 M K2HPO4, 0.2 M KH2PO4, Triton X-100, pH 7.6). 25 µl of lysate was assayed for luciferase activity by adding 50 µl of luciferase assay substrate (1 mM luciferin or luciferin salt, 3 mM ATP, and 15 mM MgSO4 in 30 mM HEPES buffer, pH 7.8) followed by 10 s mixing and measuring 1 s bioluminescence using an Envision multilabel reader (Perkin Elmer).
(§2) Figure 3 Selective glucocorticoid receptor agonist GSK866 analogs UAMC-1217, UAMC-1218 but not UAMC-1158 and UAMC-1159 elicit selective glucocorticoid receptor-transactivation and NFκB-transrepression properties. Glucocorticoid response element (GRE)- and NFκB-luciferase-dependent reporter gene assays were performed in L929sA and HaCat reporter cells which were stably transfected with, respectively, p(NFκB)3-50luc or p(GRE)2-50-luc constructs. For p(GRE)2-50-luc reporter assays, cells were solvent-treated or induced with different concentrations of Dex (A), Dex-mesylate (Dex-Mes) (A), SEGRA GSK866 (C) or analogs UAMC-1158 (D), UAMC-1159 (E), UAMC-1217 (F), and UAMC-1218 (G) as indicated for a total exposure time of 6 h, whereas cells were cotreated for TNF (2,500 IU/ml) in the last 4 h for p(NFkB)3-50luc reporter assays (B–G). Corresponding lysates were assayed for luciferase activities and normalized for protein content as described in the Section “Materials and Methods.” Promoter activities are expressed as relative induction factor (± standard deviation) i.e., the ratio of expression levels recorded either at induced and non-induced conditions, with the latter taken to be 1.

[2] = test system: GR nuclear translocation in A549 cells; assay: Immunofluorescence of nuclear GR translocation in A549 cells; format: cell-based, human; settings: serum starved A549 cells, 1 µM, 30 min
Procedure: To detect endogenous GR in A549 cells, cells were grown in serum free media for 24 h followed by treatment with 1 µM of specific GR ligands. After 30 min of treatment, cells on the cover glass were fixed in 4% formaldehyde in phosphate-buffered saline (PBS), permeabilized with 0.3% Triton X-100–PBS, and then blocked in 5% milk, 10% FCS, 0.3% bovine serum albumin, and 0.3% Triton X-100 in PBS for 30 min at room temperature. Primary antibodies against anti GR-antibody (SantaCruz Biotechnology) were used at a dilution of 1:200. Nuclei were stained by DAPI and samples were analyzed using a confocal Leica LSM410 microscope. To quantify nuclear translocation of GR in a standardized manner, multichannel fluorescence images were analyzed using a script for FIJI image analysis freeware (http://fiji.sc) that is essentially based on a pipeline described before (CellBlocks.ijm) ([39]), and is available upon request. In brief, the analysis first segments nuclei in the Hoechst/DAPI channel and then uses the nuclear mask to define perinuclear cytoplasmic regions of interest (ROIs). Nuclei are detected after local contrast enhancement and Gaussian smoothing to, respectively, cover for spatial illumination heterogeneity and noise. After automatic thresholding (Isodata algorithm), touching nuclei are separated using a conditional watershed algorithm ([40]). Next, cytoplasmic ROIs are determined as concentric bands around the nuclei by Voronoi-restrained region growing ([41]). Finally, the average intensity of the GR channel is measured in both the nuclear and cytoplasmic ROIs and the nuclear-to cytoplasm signal intensity ratio (N/C Ratio) is calculated per cell (Figure S1 in Supplementary Material) ([42]).
Figure 6 Selective glucocorticoid receptor agonist GSK866 analogs UAMC-1217, UAMC-1218, but not UAMC-1158 and UAMC-1159 trigger nuclear glucocorticoid receptor (GR) translocation. (A) Serum starved A549 cells were left solvent treated or treated for 30 min with 1 µM Dex, Dex-mesylate (Dex-Mes), GSK866, UAMC-1158, UAMC-1159, UAMC-1217, or UAMC-1218. GR translocation was evaluated by immunofluorescence whereas nuclei were stained by DAPI dye. Magnification is at 100×. White scalebars represent […]. (B) Automated image quantification of GR translocation of three replicate immunofluorescence images of the different experimental setups.

recombinant GR-LBD (hGR) = assay: Mass spectrometry of tryptic peptides of recombinant GR-LBD after ligand incubation (covalent binding); parameters: species or system human; settings: 2 h at 37°C, trypsin digestion, LC-MS/MS
Procedure: Recombinant His6-MBP-mCaspase3 site-LBD-hGR was expressed in the Escherichia coli strain BL21codon + pICA2 that was transformed with the corresponding pLHM36LBD-hGR plasmid and in which expression was induced by Isopropyl β-D-1-thiogalactopyranoside (IPTG) under control of a pL-promotor. The transformed bacteria were grown in Luria Bertani medium supplemented with ampicillin (100 µg/ml) and kanamycin (50 µg/ml) overnight at 28°C before 1/100 inoculation in 12 × 0.5 l provided with Luria Bertani medium supplemented with ampicillin (100 µg/ml) and 1% glycerol in a shaker incubator. The cells were grown to an optical density at AU 600 nm of 0.65, transferred to 20°C and expression was induced by addition of 1 mM IPTG overnight. Cells were then harvested and frozen at −20°C. […] After thawing, the cells were re-suspended at 3 ml/g in cold 20 mM Tris-HCl pH 7.4, 200 mM NaCl, 1 mM EDTA, 1 tablet complete protease inhibitor cocktail from Roche/50 ml, and 10 mM β-mercaptoethanol. The cytoplasmic fraction was prepared by sonication of the cells on ice and isolated by centrifugation at 18,000 × g for 30 min. All further purification steps were conducted at 4°C. The clear supernatant was applied to an amylase column (BioLabs, XK26 × 20, 100 ml), equilibrated with 20 mM Tris–HCl pH 7.4, 200 mM NaCl, 1 mM EDTA, and 10 mM β-mercaptoethanol. The column was eluted with 20 mM Tris–HCl pH 7.4, 200 mM NaCl, 1 mM EDTA, 10 mM maltose, and 10 mM β-mercaptoethanol. […] Recombinant purified His-MBP-DEVD-GR-LBD fusion protein was dissolved at a concentration of 1 mg in 1.7 ml PBS buffer.
Each aliquot was incubated 2 h at 37°C. […] 120 µl of each sample was loaded onto a spin column and the flow-through was collected (1,500 × g, 2 min). Trypsin (5 µl of 20 mM stock solution) was added, and the samples were incubated 20 h at 37°C. Then, 0.1% FA (formic acid) (41.5 µl) and 20 mM TCEP in 0.1% FA (18.5 µl, 5.7 mg TCEP/ml) were added [final volume = 185 µl, final concentration TCEP = 2 mM, 1 µg material/2.5 μl], and the samples were subjected to LC–MS/MS analysis.
The obtained peptide mixtures were introduced onto an LC–MS/MS system; the Ultimate 3000 RSLC nano (Dionex, Amsterdam, The Netherlands) in-line connected to an LTQ-Orbitrap Velos (Thermo Fisher Scientific, Bremen, Germany). The sample mixture was loaded on a trapping column [made in-house, 100 µm internal diameter (I.D.) × 20 mm, 5 µm C18 beads (Reprosil-HD, Dr. Maisch)]. After back flushing from the trapping column, the sample was loaded on a reverse-phase column [made in-house, 75 µm I.D. × 150 mm, 5 µm C18 beads (Reprosil-HD, Dr. Maisch)].
The mass spectrometer was operated in data-dependent mode, automatically switching between MS and MS/MS acquisition for the 10 most abundant peaks in a given MS spectrum. […]

GR [3] = test system: GR; parameters: method as in PMID 27612544; settings: ref [14], cited from earlier work; for % inhibition of GR ligand binding: 1.5 nM [3H]-dexamethasone, 1 µM ligand; for IC50 / Ki: displacement of radiolabeled Dex; for IC50: read-out: IC50 (GR radioligand binding); for Ki: read-out: Ki (GR radioligand binding); for displacement of radiolabeled Dex: cell-based ligand-binding competition assay
[4] = test system: GR Ser211 phosphorylation; assay: Western blot of GR Ser211 phosphorylation; format: cell-based; settings: 1 µM, 6 h (UAMC-1158: Figure S2, 4 or 24 h)
Procedure: Whole cell extracts contain multiple protease inhibitors (Complete Mini®, Roche) and Halt phosphatase inhibitor cocktail (Thermoscientific). Soluble protein extracts were obtained after three times freeze and thaw cycles and centrifugation at […] for 15 min at 4°C. Samples were separated by sodium dodecyl sulfate-polyacrylamidegel electrophoresis (SDS-PAGE) and transferred onto nitrocellulose membranes (Hybond C, Amersham) following standard protocols. After blocking, membranes were incubated overnight at 4°C with the primary antibodies: anti-GR (sc-8992, SantaCruz Biotechnology), anti-phospho-GR Ser211 (4161, Cell Signalling) and anti-Actin (A3853, Sigma-Aldrich) followed by dye-conjugated secondary antibodies (LI-COR® Biosciences). Bound complexes were detected with the Odyssey® infrared imaging system (LI-COR®) and quantified by Image J software.
Figure 5 Selective glucocorticoid receptor agonist GSK866 and its analogs UAMC-1217, UAMC-1218 trigger glucocorticoid receptor (GR) Ser211 phosphorylation. (A) Western detection of expression levels of Actin, GR, and GR Ser S211 phosphorylation in HaCat cells following 6 h treatment with 1 µM Dex, UAMC-1217, UAMC-1218, or GSK866. (B) Bar plot representation of Western blot intensities of Actin, GR, and GR Ser S211 phosphorylation observed in panel A, as quantified by Image J. (C) Western detection of expression levels of Actin, GR expression, and Ser S211 phosphorylation in HaCat cells following 6 h treatment with, respectively, 10, 100, or 1,000 nM Dex or UAMC-1217. (D) Bar plot representation of Western blot intensities of Actin, GR, and GR Ser S211 phosphorylation observed in panel (C), as quantified by free Image J software.

GR [5] = assay: Cell-based GR ligand-binding competition assay with [3H]-dexamethasone; settings: from IC50 values of ligand displacement assays; ref [14]
[6] = test system: GR transactivation, p(GRE)2-50-luc reporter in HaCat cells; assay: p(GRE)2-50-luc reporter gene assay (GR transactivation); format: cell-based; settings: 6 h; for GR transactivation in GRE-luc reporter: concentration range 10^−6–10^−10 M
Procedure: as §1, §2

For `C=CC(=O)Nc1ccc(Cl)c(C(=O)N(CC)C[C@@](O)(CNC(=O)c2cnn(-c3ccc(F)cc3)c2N)C(F)(F)F)c1Cl` [UAMC-1218], the inhibition at 0.01 µM ([1]; L929sA, 10 nM compound) was roughly 95%, the “NFκB transrepression in NFκB-luc reporter” value (“NFκB transrepression” for short) [1] was “dose-dependent NFκB-transrepression effects” and the “nuclear GR translocation” value [2] was “induce (partial) translocation of GR from the cytosol to the nucleus”. The “Modifications: GR-LBD cysteine-containing peptide covalently bound” value (recombinant GR-LBD (hGR)) was “Cys-622”, the “Modifications: GR-LBD cysteine-containing peptide covalently bound” value (recombinant GR-LBD (hGR); listed as 1218) was “Peptide 615–633 → C622” and the “% inhibition of GR ligand binding” value (GR [3]) was 96%. The IC50 (GR [3]) was 34 nM, the Ki (GR [3]) was 17 nM and the “GR Ser211 phosphorylation” value [4] was “enhance the Ser211 phosphorylation”. The “fold lower GR-LBD affinity versus GSK866” value (GR [5]) was “approx. 5 fold” and the “GR transactivation in GRE-luc reporter at 10 nM” value [6] was “significantly reduced GR transactivation to levels below transactivation observed with 10 nM of Dex”.

In the case of `C[C@@H]1C[C@H]2[C@@H]3CCC4=CC(=O)C=C[C@]4(C)[C@@]3(F)[C@@H](O)C[C@]2(C)[C@@]1(O)C(=O)COS(C)(=O)=O` [Dex-Mes, dexamethasone-21-mesylate, reference compound], the “inhibition of TNF-induced NFκB reporter gene activity” value ([1]; 10 nM compound) is given as 40–45%, the “nuclear GR translocation” value [2] is given as “induce (partial) translocation of GR from the cytosol to the nucleus” and the “% inhibition of GR ligand binding” value (GR [3]) is given as 99%. The IC50 (GR [3]) was 7.3 nM, the Ki (GR [3]) was 3.7 nM and the “GR transactivation in GRE-luc reporter” value [6] was “weaker dose-dependent GR-dependent transactivation than Dex”.

In the case of `CCN(C[C@@](O)(CNC(=O)c1cnn(-c2ccc(F)cc2)c1N)C(F)(F)F)C(=O)CCN1C(=O)C=CC1=O` [UAMC-1158], the “NFκB transrepression” value [1] is listed as “completely ineffective”, the “nuclear GR translocation” value [2] is listed as “completely ineffective” and the “% inhibition of GR ligand binding” value (GR [3]) is listed as −2%. For the same molecule, the “displacement of radiolabeled Dex” value (GR [3]) was “failed to show displacement of radiolabeled Dex”, the “GR Ser211 phosphorylation” value [4] was “failed to show any change in GR phosphorylation status” and the “GR transactivation in GRE-luc reporter” value [6] was “completely fail to elicit any GR transactivation at any dose tested”.

In the case of `CCN(CC(O)(CNC(=O)c1cnn(-c2ccc(F)cc2)c1N)C(F)(F)F)C(=O)C1CCCN1C(=O)CCl` (stereo not drawn) [UAMC-1159], the “NFκB transrepression” value [1] is given as “completely ineffective”, the “nuclear GR translocation” value [2] is given as “completely ineffective” and the “% inhibition of GR ligand binding” value (GR [3]) is given as −12%. The “displacement of radiolabeled Dex” value (GR [3]) was “failed to show displacement of radiolabeled Dex” and the “GR transactivation in GRE-luc reporter” value [6] was “completely fail to elicit any GR transactivation at any dose tested”.

For `CCN(C[C@@](O)(CNC(=O)c1cnn(-c2ccc(F)cc2)c1N)C(F)(F)F)C(=O)c1c(Cl)cccc1Cl` [GSK866], the “NFκB transrepression” value [1] is listed as “dose-dependent NFκB-transrepression effects”, the “nuclear GR translocation” value [2] is listed as “induce (partial) translocation of GR from the cytosol to the nucleus” and the “% inhibition of GR ligand binding” value (GR [3]) is listed as 100%. The IC50 (GR [3]) was 4.6 nM, the Ki (GR [3]) was 2.3 nM and the “GR Ser211 phosphorylation” value [4] was “enhance the Ser211 phosphorylation”. The “GR transactivation in GRE-luc reporter at 10 nM” value [6] was “significant GR transactivation” and the “GR transactivation in GRE-luc reporter” value [6] was “strong GR agonistic activities”.
